Assay results taken from patent US11572475B2, “Carbocyanines for G-quadruplex DNA stabilization and telomerase inhibition” (GEORGIA STATE UNIVERSITY RESEARCH FOUNDATION, INC., priority 2011, dated 2023).

Experiments:
[1] = system: Human Telomere (HT) quadruplex DNA; test: Thermal melting UV-Vis absorbance, quadruplex DNA; format: binding; settings: for Selectivity for quadruplex over duplex DNA by thermal melting: quadruplex vs duplex
Description: (§1) Three DNA sequences were used: Human Telomere (HTelo), c-myc, and Duplex (Integrated DNA Technologies, San Diego, Calif.). The sequences are shown below:
The concentration of each DNA sample mixed with MilliQ water was determined by UV-Vis at 260 nm using their extinction coefficients. Quadruplexes from Human Telomere (Tel22) and c-myc were prepared by heating the corresponding oligonucleotides at 90° C. for 5 minutes in a 10 mM Tris/50 mM KCl buffer at pH 7.5 and then cooling to room temperature (to favor the intramolecular folding).
(§2) The buffer used was 10 mM Tris base (Fischer Scientific, Fairlawn, N.J.), 50 mM Potassium Chloride (Fischer Scientific, Fairlawn, N.J.), with the pH adjusted to 7.5 with Hydrochloric Acid (Fischer Scientific, Fairlawn, N.J.).
(§3) DNA folding and unfolding (melting) can be measured using absorbance at a constant wavelength of 260 nm for duplex DNA and 295 nm for quadruplex DNA while the temperature is increased, for example from 25° C. to 95° C. At these wavelengths, the resulting curves decrease in absorbance for quadruplex and increase for duplex DNA. Buffer solution and presence of DNA-binding compounds alter the Tm melting temperature, or midpoint between fully folded and unfolded. An increase in melting temperature in the presence of DNA-binding compounds indicates a stabilizing effect of the compound on the DNA structure.
(§4) The selectivity of a given cyanine for quadruplex DNA can be evaluated using thermal melting. The number in parentheses next to the compound number corresponds to the compound number in Schemes 1 and 2.
(§5) Thermal melting studies were also performed on compounds T4 and T5 (Scheme 2) and ZK-14 and SP-2-36.

Duplex DNA = test: Thermal melting UV-Vis absorbance, duplex DNA; format: binding
Description: as §1, §2, §3, §4, §5

Structure (SMILES) | Change in Thermal Melting Points, Human Telomere (HT), 1:1 ([1]; ratio 1:1 (R)) | Change in Thermal Melting Points, Human Telomere (HT), 2:1 ([1]; ratio 2:1 (R)) | Change in Thermal Melting Points, Human Telomere (HT), 4:1 ([1]; ratio 4:1 (R)) | Change in Thermal Melting Points, Human Telomere (HT), 6:1 ([1]; ratio 6:1 (R)) | Thermal Melting (Δ° C.), Quadruplex DNA, 1:1 ratio [1] | Thermal Melting (Δ° C.), Quadruplex DNA, 1:2 ratio [1] | Thermal Melting (Δ° C.), Quadruplex DNA, 1:4 ratio [1] | Thermal Melting (Δ° C.), Quadruplex DNA, 1:6 ratio [1] | Thermal Melting (Δ° C.), Duplex DNA, 1:1 ratio (Duplex DNA) | Thermal Melting (Δ° C.), Duplex DNA, 1:2 ratio (Duplex DNA) | Thermal Melting (Δ° C.), Duplex DNA, 1:4 ratio (Duplex DNA) | Thermal Melting (Δ° C.), Duplex DNA, 1:6 ratio (Duplex DNA) | Selectivity for quadruplex over duplex DNA by thermal melting [1]
CC1(C)C(=CC=CC2=[N+](CCC[N+](C)(C)C)c3ccc(S(=O)(=O)[O-])cc3C2(C)C)N(CCC[N+](C)(C)C)c2ccc(S(=O)(=O)[O-])cc21.[Br-] [MH2 (31)] | 1.5 | 1.1 | 0.6 | 1.2 | – | – | – | – | – | – | – | – | –
CC1(C)C(/C=C/C(Cl)=C/C=C2\N(CCC[N+](C)(C)C)c3ccc(F)cc3C2(C)C)=[N+](CCC[N+](C)(C)C)c2ccc(F)cc21 [T4] | – | – | – | – | 1.6 +/− 0.2 °C | 3.3 +/− 0.4 °C | 8.0 +/− 0.7 °C | 10.7 +/− 0.7 °C | 0.4 +/− 0.4 °C | 0.5 +/− 0.4 °C | 0.9 +/− 0.5 °C | 1.2 +/− 0.7 °C | –
CCCCn1/c(=C/C=C/C2=[N+](CCC[N+](C)(C)C)c3ccccc3C2(C)C)c2cccc3cccc1c32 [ZK-14] | – | – | – | – | 1.9 +/− 0.3 °C | 7.7 +/− 1.1 °C | 20.4 +/− 1.0 °C | 26.0 +/− 0.5 °C | 0.6 +/− 0.1 °C | 0.8 +/− 0.3 °C | 2.7 +/− 0.1 °C | 2.8 +/− 0.3 °C | bind quite strongly to the quadruplex with excellent selectivity
CC1(C)C(/C=C/C(=C/C=C2\N(CCC[N+](C)(C)C)c3ccccc3C2(C)C)c2ccncc2)=[N+](CCC[N+](C)(C)C)c2ccccc21 [SP-2-36] | – | – | – | – | 0.9 +/− 0.1 °C | 1.4 +/− 0.2 °C | 3.5 +/− 0.8 °C | 4.4 +/− 0.5 °C | 0.2 +/− 0.3 °C | 0.5 +/− 0.5 °C | 0.5 +/− 0.3 °C | 0.6 +/− 0.3 °C | –
CC1(C)C(/C=C/C(Br)=C/C=C2\N(CCC[N+](C)(C)C)c3ccc(F)cc3C2(C)C)=[N+](CCC[N+](C)(C)C)c2ccc(F)cc21 [T5] | – | – | – | – | 2.7 +/− 0.3 °C | 6.2 +/− 0.4 °C | 13.3 +/− 0.4 °C | 16.9 +/− 0.6 °C | 0.1 +/− 0.2 °C | 0.8 +/− 0.4 °C | 0.8 +/− 0.4 °C | 0.9 +/− 0.4 °C | bind quite strongly to the quadruplex with excellent selectivity
